From the CheMixHub viscosity set
± gives the uncertainty stated by the source.

Experiment: xn = mol fraction of the nth substance listed

OCCO + O
Settings	viscosity [mPa·s]
293.15 K, 100 kPa, x1 = 0.3	5.035 ± 0.015
293.15 K, 101 kPa, x1 = 0.0744	1.724 ± 0.023
293.15 K, 101 kPa, x1 = 0.1209	2.258 ± 0.03
293.15 K, 101.3 kPa, x1 = 0.031	1.28 ± 0.03
293.15 K, 101.3 kPa, x1 = 0.068	1.79 ± 0.05
293.15 K, 101.3 kPa, x1 = 0.11	1.9 ± 0.05
293.15 K, 101.3 kPa, x1 = 0.14	2.47 ± 0.07
293.15 K, 101.3 kPa, x1 = 0.16	2.8 ± 0.08
293.15 K, 101.3 kPa, x1 = 0.19	3.14 ± 0.08
293.15 K, 101.3 kPa, x1 = 0.22	3.66 ± 0.1
293.15 K, 101.3 kPa, x1 = 0.26	4.09 ± 0.11
293.15 K, 101.3 kPa, x1 = 0.3	4.68 ± 0.13
293.15 K, 101.3 kPa, x1 = 0.4	6.5 ± 0.18
293.15 K, 101.3 kPa, x1 = 0.54	9.03 ± 0.24
293.15 K, 101.3 kPa, x1 = 0.72	13.6 ± 0.4
298.15 K, 101 kPa, x1 = 0.0414	1.22 ± 0.01
298.15 K, 101 kPa, x1 = 0.118	1.97 ± 0.02
298.15 K, 101 kPa, x1 = 0.1553	2.36 ± 0.02
298.15 K, 101 kPa, x1 = 0.3385	4.73 ± 0.03
298.15 K, 101 kPa, x1 = 0.3521	4.96 ± 0.04
298.15 K, 101 kPa, x1 = 0.4133	5.94 ± 0.04
298.15 K, 101 kPa, x1 = 0.5333	7.96 ± 0.06
298.15 K, 101 kPa, x1 = 0.6376	9.9 ± 0.07
298.15 K, 101 kPa, x1 = 0.7762	12.56 ± 0.09
298.15 K, 101 kPa, x1 = 0.8769	14.49 ± 0.1
298.15 K, 101 kPa, x1 = 0.907	15.05 ± 0.1
298.15 K, 101 kPa, x2 = 0.0034	16.94 ± 0.12
298.15 K, 101.33 kPa, x1 = 0.1753	2.58 ± 0.07
298.15 K, 101.33 kPa, x1 = 0.3316	4.73 ± 0.12
298.15 K, 101.33 kPa, x1 = 0.5615	8.36 ± 0.22
303.15 K, 101.3 kPa, x1 = 0.031	0.92 ± 0.03
303.15 K, 101.3 kPa, x1 = 0.068	1.27 ± 0.03
303.15 K, 101.3 kPa, x1 = 0.11	1.43 ± 0.04
303.15 K, 101.3 kPa, x1 = 0.14	1.87 ± 0.05
303.15 K, 101.3 kPa, x1 = 0.16	2.09 ± 0.06
303.15 K, 101.3 kPa, x1 = 0.19	2.34 ± 0.06
303.15 K, 101.3 kPa, x1 = 0.22	2.7 ± 0.07
303.15 K, 101.3 kPa, x1 = 0.26	2.99 ± 0.08
303.15 K, 101.3 kPa, x1 = 0.3	3.38 ± 0.09
303.15 K, 101.3 kPa, x1 = 0.4	4.59 ± 0.12
303.15 K, 101.3 kPa, x1 = 0.54	6.29 ± 0.17
303.15 K, 101.3 kPa, x1 = 0.72	9.22 ± 0.25
303.15 K, 101.33 kPa, x1 = 0.0003	0.778 ± 0.011
303.15 K, 101.33 kPa, x1 = 0.0009	0.781 ± 0.011
303.15 K, 101.33 kPa, x1 = 0.0059	0.808 ± 0.011
303.15 K, 101.33 kPa, x1 = 0.01	0.834 ± 0.011
303.15 K, 101.33 kPa, x1 = 0.0136	0.856 ± 0.012
303.15 K, 101.33 kPa, x1 = 0.0616	1.18 ± 0.015
303.15 K, 101.33 kPa, x1 = 0.1054	1.529 ± 0.02
303.15 K, 101.33 kPa, x1 = 0.1634	2.03 ± 0.025
303.15 K, 101.33 kPa, x1 = 0.1935	2.348 ± 0.029
303.15 K, 101.33 kPa, x1 = 0.2969	3.435 ± 0.042
303.15 K, 101.33 kPa, x1 = 0.3955	4.638 ± 0.056
303.15 K, 101.33 kPa, x1 = 0.4982	6 ± 0.069
303.15 K, 101.33 kPa, x1 = 0.5873	7.264 ± 0.08
303.15 K, 101.33 kPa, x1 = 0.6734	8.539 ± 0.092
303.15 K, 101.33 kPa, x1 = 0.7944	10.39 ± 0.11
303.15 K, 101.33 kPa, x1 = 0.8719	11.58 ± 0.12
303.15 K, 101.33 kPa, x1 = 0.941	12.69 ± 0.13
303.15 K, 101.33 kPa, x2 = 0.0134	13.35 ± 0.14
308.15 K, 101.33 kPa, x1 = 0.0003	0.706 ± 0.01
308.15 K, 101.33 kPa, x1 = 0.0009	0.709 ± 0.01
308.15 K, 101.33 kPa, x1 = 0.0059	0.733 ± 0.01
308.15 K, 101.33 kPa, x1 = 0.01	0.752 ± 0.01
308.15 K, 101.33 kPa, x1 = 0.0136	0.774 ± 0.011
308.15 K, 101.33 kPa, x1 = 0.0616	1.044 ± 0.014
308.15 K, 101.33 kPa, x1 = 0.1054	1.326 ± 0.017
308.15 K, 101.33 kPa, x1 = 0.1634	1.756 ± 0.022
308.15 K, 101.33 kPa, x1 = 0.1935	2.016 ± 0.025
308.15 K, 101.33 kPa, x1 = 0.2969	2.919 ± 0.036
308.15 K, 101.33 kPa, x1 = 0.3955	3.905 ± 0.047
308.15 K, 101.33 kPa, x1 = 0.4982	5.004 ± 0.06
308.15 K, 101.33 kPa, x1 = 0.5873	6.04 ± 0.069
308.15 K, 101.33 kPa, x1 = 0.6734	7.077 ± 0.079
308.15 K, 101.33 kPa, x1 = 0.7944	8.555 ± 0.092
308.15 K, 101.33 kPa, x1 = 0.8719	9.501 ± 0.1
308.15 K, 101.33 kPa, x1 = 0.941	10.35 ± 0.11
308.15 K, 101.33 kPa, x2 = 0.2029	8.051 ± 0.17
308.15 K, 101.33 kPa, x2 = 0.3005	6.899 ± 0.15
308.15 K, 101.33 kPa, x2 = 0.3986	5.846 ± 0.13
308.15 K, 101.33 kPa, x2 = 0.5012	4.779 ± 0.11
308.15 K, 101.33 kPa, x2 = 0.5999	3.798 ± 0.088
308.15 K, 101.33 kPa, x2 = 0.6987	2.866 ± 0.067
308.15 K, 101.33 kPa, x2 = 0.8008	1.998 ± 0.048
308.15 K, 101.33 kPa, x2 = 0.8947	1.315 ± 0.033
313.15 K, 101.3 kPa, x1 = 0.031	0.8 ± 0.02
313.15 K, 101.3 kPa, x1 = 0.068	1.04 ± 0.03
313.15 K, 101.3 kPa, x1 = 0.11	1.08 ± 0.03
313.15 K, 101.3 kPa, x1 = 0.14	1.46 ± 0.04
313.15 K, 101.3 kPa, x1 = 0.16	1.61 ± 0.04
313.15 K, 101.3 kPa, x1 = 0.19	1.8 ± 0.05
313.15 K, 101.3 kPa, x1 = 0.22	2.04 ± 0.05
313.15 K, 101.3 kPa, x1 = 0.3	2.54 ± 0.07
313.15 K, 101.3 kPa, x1 = 0.4	3.4 ± 0.09
313.15 K, 101.3 kPa, x1 = 0.54	4.58 ± 0.12
313.15 K, 101.3 kPa, x1 = 0.72	6.53 ± 0.17
323.15 K, 101.3 kPa, x1 = 0.031	0.67 ± 0.02
323.15 K, 101.3 kPa, x1 = 0.068	0.82 ± 0.02
323.15 K, 101.3 kPa, x1 = 0.11	0.9 ± 0.02
323.15 K, 101.3 kPa, x1 = 0.14	1.21 ± 0.03
323.15 K, 101.3 kPa, x1 = 0.16	1.3 ± 0.03
323.15 K, 101.3 kPa, x1 = 0.19	1.44 ± 0.04
323.15 K, 101.3 kPa, x1 = 0.22	1.62 ± 0.04
323.15 K, 101.3 kPa, x1 = 0.26	1.81 ± 0.05
323.15 K, 101.3 kPa, x1 = 0.3	1.97 ± 0.05
323.15 K, 101.3 kPa, x1 = 0.4	2.59 ± 0.07
323.15 K, 101.3 kPa, x1 = 0.54	3.46 ± 0.09
323.15 K, 101.3 kPa, x1 = 0.72	4.83 ± 0.13
